Measurements: patent US20200102264A1, “MARMELIN ANALOGS AND METHODS OF USE IN CANCER TREATMENT” (THE UNIVERSITY OF KANSAS, priority 2014, published 2020)

What was measured:
Assay type in all cases: cell-based
[1] = system: SW480 colon cancer cells; experiment: hexoseaminidase cell proliferation assay, SW480
Excerpt: (§1) Using hexoseaminidase assay, we determined the effect of the compounds on cell proliferation. […]
(§2) Using hexoseaminidase assay, we determined the effect of the compounds on cell proliferation. […] […] […] Overall, the analogs can be used as chemotherapeutic agents against colon and pancreatic cancer.

[2] = system: HCT116 colon cancer cells; experiment: hexoseaminidase cell proliferation assay, HCT116
Excerpt: as §1, §2

[3] = system: PanC-1 pancreatic cancer cells; experiment: hexoseaminidase cell proliferation assay, PanC-1
Method: (§3) Using hexoseaminidase assay, we determined the effect of the compounds on cell proliferation. […] The IC50 value at 48 hours is below 10 μM in all the cancer cell lines.
(§4) Using hexoseaminidase assay, we determined the effect of the compounds on cell proliferation. […] The MRL16 IC50 value at 48 hours is below 0.3 μM in Colon cancer cell lines. […] Overall, the analogs can be used as chemotherapeutic agents against colon and pancreatic cancer.

[4] = system: MiaPaCa-2 pancreatic cancer cells; experiment: hexoseaminidase cell proliferation assay, MiaPaCa-2
Method: as §3, §4

[5] = system: colon, pancreatic and bladder cancer cells; experiment: hexoseaminidase cell proliferation assay, summaries over cell lines; details: dose and time dependent
Method: Water solubility studies were performed with the CD/analog complexes. […] The observed IC50 value of THBCD at 48 h is below 10 μM in all the colon, pancreatic and bladder cancer cells.
as §3, §4

[6] = system: SW480 cells; experiment: colony formation, SW480
[7] = system: PanC-1 cells; experiment: colony formation, PanC-1
[8] = system: MiaPaCa-2 cells; experiment: colony formation, MiaPaCa-2
[9] = system: cancer stem cells; experiment: colonosphere formation
Method: It was also determined the analogs inhibit colonosphere formation from cancer stem cells. […] The columns are 0, 10, 25, and 50 micromolar concentrations of the compounds labeled by rows.
The effect of the compounds on colonosphere formation was determined. […] Overall, the analogs have shown they can be used as chemotherapeutic agents against colon, pancreatic and bladder cancer.

[10] = system: HCT116 cells; experiment: colony formation, HCT116
[11] = system: 253JBV bladder cancer cells; experiment: hexoseaminidase cell proliferation assay, 253JBV
Method: as §3

[12] = system: KU7 bladder cancer cells; experiment: hexoseaminidase cell proliferation assay, KU7
Method: as §3

[13] = Homo sapiens, HCT-116, HCT116, 24 h
[14] = Homo sapiens, HCT-116, HCT116, 48 h
[15] = Homo sapiens, HCT-116, HCT116, 72 h
[16] = Homo sapiens, MIA PaCa-2, MiaPaCa-2, 24 h
[17] = Homo sapiens, MIA PaCa-2, MiaPaCa-2, 48 h
[18] = Homo sapiens, MIA PaCa-2, MiaPaCa-2, 72 h

C/C(=N\NC(=O)c1ccccc1O)c1ccc2ccccc2c1O [MRL18]
IC50 ([1]; Homo sapiens, SW480, 24 h): > 10 µM | IC50 ([1]; Homo sapiens, SW480, 48 h): 5 µM | IC50 ([1]; Homo sapiens, SW480, 72 h): 3 µM | IC50 [2, 13]: > 10 µM | IC50 [2, 14]: 3 µM | IC50 [2, 15]: 1 µM | IC50 ([3]; Homo sapiens, PANC-1, 24 h): > 10 µM | IC50 ([3]; Homo sapiens, PANC-1, 48 h): 4 µM | IC50 ([3]; Homo sapiens, PANC-1, 72 h): 2 µM | IC50 [4, 16]: > 10 µM | IC50 [4, 17]: > 10 µM | IC50 [4, 18]: 10 µM | inhibition of cell proliferation (in words) [5]: potent inhibitor

O=C(N/N=C/c1ccccc1O)c1cc2ccccc2cc1O [SAL]
IC50 ([1]; SW480, 24 h): > 50 µM | IC50 ([1]; SW480, 48 h): > 50 µM | IC50 ([1]; SW480, 72 h): 8 µM | colony formation [6]: inhibit colony formation | colony formation [7]: inhibit colony formation | colony formation [8]: inhibit colony formation | IC50 ([2]; HCT116, 24 h): 25 µM | IC50 ([2]; HCT116, 48 h): 8 µM | IC50 ([2]; HCT116, 72 h): 6 µM | colonosphere formation [9]: potent inhibitors of colonosphere formation | IC50 ([3]; PanC-1, 24 h): > 50 µM | IC50 ([3]; PanC-1, 48 h): 10 µM | IC50 ([3]; PanC-1, 72 h): 8 µM | colony formation [10]: inhibit colony formation | IC50 ([4]; MiaPaCa-2, 24 h): > 50 µM | IC50 ([4]; MiaPaCa-2, 48 h): > 50 µM | IC50 ([4]; MiaPaCa-2, 72 h): 8 µM

C/C(=N\NC(=O)c1ccco1)c1ccc2ccccc2c1O [MRL21]
IC50 ([1]; SW480, 24 h): > 10 µM | IC50 ([1]; SW480, 48 h): 5 µM | IC50 ([1]; SW480, 72 h): 3 µM | IC50 ([2]; HCT116, 24 h): 10 µM | IC50 ([2]; HCT116, 48 h): 3.8 µM | IC50 ([2]; HCT116, 72 h): 3 µM | IC50 ([3]; PanC-1, 24 h): > 10 µM | IC50 ([3]; PanC-1, 48 h): 5 µM | IC50 ([3]; PanC-1, 72 h): 3 µM | IC50 ([4]; MiaPaCa-2, 24 h): > 10 µM | IC50 ([4]; MiaPaCa-2, 48 h): 5 µM | IC50 ([4]; MiaPaCa-2, 72 h): 5 µM | inhibition of cell proliferation (in words) [5]: potent inhibitor

C/C(=N\NC(=O)c1ccccc1)c1ccc2ccccc2c1O [MRL19]
IC50 ([1]; Homo sapiens, SW480, 24 h): > 10 µM | IC50 ([1]; Homo sapiens, SW480, 48 h): > 10 µM | IC50 ([1]; Homo sapiens, SW480, 72 h): 5 µM | IC50 [2, 13]: > 10 µM | IC50 [2, 14]: 5 µM | IC50 [2, 15]: 2.3 µM | IC50 ([3]; Homo sapiens, PANC-1, 24 h): > 10 µM | IC50 ([3]; Homo sapiens, PANC-1, 48 h): 10 µM | IC50 ([3]; Homo sapiens, PANC-1, 72 h): 4 µM | IC50 [4, 16]: > 10 µM | IC50 [4, 17]: > 10 µM | IC50 [4, 18]: > 10 µM | inhibition of cell proliferation (in words) [5]: potent inhibitor

O=C(N/N=C/c1ccc2ccccc2c1O)c1cc2ccccc2cc1O [NAL]
IC50 ([1]; SW480, 24 h): 25 µM | IC50 ([1]; SW480, 48 h): 8 µM | IC50 ([1]; SW480, 72 h): 8 µM | colony formation [6]: inhibit colony formation | colony formation [7]: inhibit colony formation | IC50 ([11]; 24 h): > 50 µM | IC50 ([11]; 48 h): 10 µM | IC50 ([11]; 72 h): 7 µM | colony formation [8]: inhibit colony formation | IC50 ([2]; HCT116, 24 h): 10 µM | IC50 ([2]; HCT116, 48 h): 6 µM | IC50 ([2]; HCT116, 72 h): 6 µM | colonosphere formation [9]: potent inhibitors of colonosphere formation | IC50 ([3]; PanC-1, 24 h): 45 µM | IC50 ([3]; PanC-1, 48 h): 10 µM | IC50 ([3]; PanC-1, 72 h): 7 µM | colony formation [10]: inhibit colony formation | IC50 ([4]; MiaPaCa-2, 24 h): 40 µM | IC50 ([4]; MiaPaCa-2, 48 h): 8 µM | IC50 ([4]; MiaPaCa-2, 72 h): 6 µM | inhibition of cell proliferation (in words) [5]: potent inhibitor | IC50 ([12]; KU7, 24 h): 10 µM | IC50 ([12]; KU7, 48 h): 10 µM | IC50 ([12]; KU7, 72 h): 6 µM
